Reference: patent US6821976B2, “S-6-hydroxy-buspirone” (Bristol-Myers Squibb Company, priority 2001, dated 2004)

Experiments:
[1] = system: Harlan Sprague-Dawley rat pups; experiment: Rat pup isolation-induced ultrasonic vocalization test; type: in vivo; conditions: for anxiolytic activity (ultrasonic vocalizations emitted by rat pups): dose levels of 0.3 and 1 mg/kg s.c.
Experimental: Harlan Sprague-Dawley rat pups (male and female) were housed in polycarbonate cages with the dam until 9-11 days old. Thirty minutes before testing, pups were removed from the dam, placed into a new cage with a small amount of home bedding and brought into the lab and placed under a light to maintain body temperature at 37° C. Pups were then weighed, sexed, marked and returned to the litter group until behavioral assessment. Testing took place in a Plexiglas recording chamber that contained a metal plate maintained at (18-20° C.) with a 5×5 cm grid drawn on the plate. A microphone was suspended 10 cm above the plate to record ultrasonic vocalizations. Ultrasonic calls were recorded using the Noldus UltraVox system providing online analysis of the frequency and duration of calls. The number of grid cells entered by the pup was also collected by visual scoring. […] Immediately following the collection of the baseline measures, pups were injected with vehicle or drug subcutaneously at the nape of the neck and returned to its littermates. Thirty minutes later, pups were retested on each of the dependent measures (vocalization and grid cell crossings) to assess drug effects. Unless otherwise specified, each pup was used only once. Baseline differences and percent change from baseline for the frequency of ultrasonic vocalizations and grid cell crossings were analyzed using a one-way ANOVA. Bonferroni/Dunn post hoc comparisons were performed to assess the acute drug effects with vehicle control. Log-probit analysis was used to estimate the dose (milligrams per kilogram) of each agonist predicted to inhibit isolation-induced ultrasonic vocalizations by 50% (ID50). All comparison were made with an experimental type I error rate (α) set at 0.05.
Doses for each drug were administered in an irregular order across several litters. S-6-hydroxy-buspirone and racemic 6-hydroxy-buspirone were dissolved in physiological saline (0.9% NaCl; vehicle). All injections were administered subcutaneously in a volume of 10 ml/kg. Doses of the drug refer to weight of the salt.

human 5-HT1A receptor = biological target: T1, human 5-HT1A receptor (Homo sapiens, UniProt P08908); experiment: 5-HT1A receptor binding assay; conditions: preclinical studies
T1 construct: expressed in transfected cells; host or cells: HEK293 cells
T1 sequence (P08908 1-422): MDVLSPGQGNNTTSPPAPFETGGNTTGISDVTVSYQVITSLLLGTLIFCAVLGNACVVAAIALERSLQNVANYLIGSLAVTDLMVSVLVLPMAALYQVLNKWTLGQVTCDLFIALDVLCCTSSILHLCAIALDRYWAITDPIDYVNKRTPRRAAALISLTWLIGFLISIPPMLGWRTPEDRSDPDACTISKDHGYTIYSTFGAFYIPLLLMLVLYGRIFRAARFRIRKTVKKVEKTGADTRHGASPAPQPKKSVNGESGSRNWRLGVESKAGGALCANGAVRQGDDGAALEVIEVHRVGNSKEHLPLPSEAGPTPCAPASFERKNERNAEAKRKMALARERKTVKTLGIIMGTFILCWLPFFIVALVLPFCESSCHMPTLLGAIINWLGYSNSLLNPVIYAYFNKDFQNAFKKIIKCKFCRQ
Experimental: Membranes are prepared for binding using the human 5-HT1A receptor expressed in HEK293 cells. Cells are collected and ruptured using a dounce homogenizer. The cells are spun at 18000×g for 10 minutes and the pellet is resuspended in assay buffer, frozen in liquid nitrogen and kept at −80° C. until the day of the assay.
A total of 30 ug protein is used per well. The assay is carried out in 96-deep-well plates. The assay buffer is 50 mM HEPES containing 2.5 mM MgCl2 and 2 mM EGTA. The membrane preparation is incubated at 25° C. for 60 minutes with 0.1 nM to 1000 nM test compound and 1 nM 3H-8-OH-DPAT. […] serotonin serves as blocking agent to determine non-specific binding. The reaction is terminated by the addition of 1 ml of ice cold 50 mM HEPES buffer and rapid filtration through a Brandel Cell Harvester using Whatman GF/B filters. The filter pads are counted in an LKB Trilux liquid scintillation counter. IC50 values are determined using non-linear regression by Excel-fit.

[2] = Clinical studies in volunteers orally dosed with buspirone, blood plasma levels; type: in vivo, human; conditions: compared to buspirone blood plasma levels
[3] = Pharmacokinetic studies with 6-hydroxy-buspirone, clearance from the bloodstream; conditions: in vivo

SMILES | anxiolytic activity (ultrasonic vocalizations emitted by rat pups) [1] | anxiolytic response in the rat pup ultrasonic vocalization test ([1]; functional testing) | animal movement, measured by crossing grid boundary lines ([1]; rat pups, compared to the animals dosed with the single enantiomer) | affinity for the human 5-HT1A receptor (human 5-HT1A receptor) | time course of blood plasma levels [2] | clearance from the bloodstream compared with the R-enantiomer [3] | reduced clearance of S- over R- [3]
O=C1CC2(CCCC2)C(O)C(=O)N1CCCCN1CCN(c2ncccn2)CC1 (racemic) [6-hydroxy-buspirone] | Statistically significant anxiolytic activity | dose-dependent anxiolytic response | appeared to be reduced | strong affinity | sustained |  | 
O=C1CC2(CCCC2)[C@H](O)C(=O)N1CCCCN1CCN(c2ncccn2)CC1 [S-6-hydroxy-buspirone] | Statistically significant anxiolytic activity |  |  |  |  | cleared more slowly | about three-fold
O=C1CC2(CCCC2)CC(=O)N1CCCCN1CCN(c2ncccn2)CC1 [buspirone] |  |  |  | strong affinity |  |  | 
